Source: patent US8492374B2, “Azaazulene compounds” (Industrial Technology Research Institute, priority 2009, dated 2013)

Experiments:
FLT-3 kinase = target: T1, FLT-3 kinase (Homo sapiens, UniProt P36888); assay: FLT-3 kinase DELFIA assay (HTScan FLT-3 Kinase Assay Kit); type: biochemical; conditions: 20 uM ATP; for inhibition at 0.1 µM: 0.1 uM compound; for inhibition at 1 µM: 1 uM compound
T1 construct: human FLT-3 (Arg571-Ser993); GST (N); purchased Cell Signaling Technology HTScan FLT-3 Kinase Assay Kit; host or cells: baculovirus expression system
T1 sequence (P36888 571-993): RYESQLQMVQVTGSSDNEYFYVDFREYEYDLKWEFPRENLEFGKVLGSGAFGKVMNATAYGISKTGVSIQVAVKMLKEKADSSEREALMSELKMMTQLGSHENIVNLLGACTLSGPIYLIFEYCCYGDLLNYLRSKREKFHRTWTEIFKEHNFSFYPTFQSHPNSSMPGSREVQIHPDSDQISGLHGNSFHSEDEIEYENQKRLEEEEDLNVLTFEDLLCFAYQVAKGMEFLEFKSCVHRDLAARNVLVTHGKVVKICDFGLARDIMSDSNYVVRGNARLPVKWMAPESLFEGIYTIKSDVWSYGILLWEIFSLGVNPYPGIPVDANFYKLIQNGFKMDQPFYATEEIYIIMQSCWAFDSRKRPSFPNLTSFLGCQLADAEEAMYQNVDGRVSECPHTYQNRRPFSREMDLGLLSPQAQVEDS
Procedure: (§1) Azaazulene Compounds of this invention were treated for their efficacy in inhibiting activities of FLT-3, c-KIT and KDR kinases by biochemical DELFIA (Dissociation Enhanced Lanthanide FIA) assays according to the procedure described below. The assays were conducted by, Division of Cell Engineering, Biomedical Engineering Research Laboratories, Industrial Technology Research Institute, Bldg. 53, 195, sec. 4, Chung Hsing Rd. Chutung, Hsinchu, Taiwan 310, R.O.C.
The FLT-3 assay was conducted following the protocol described in Protocol for HTScang FLT-3 Kinase Assay Kit (Cell Signaling Technology®).

c-KIT kinase = target: T2, c-KIT kinase (Homo sapiens, UniProt P10721); assay: c-KIT kinase DELFIA assay (HTScan c-KIT Kinase Assay Kit); type: biochemical; conditions: 20 uM ATP; for inhibition at 0.1 µM: 0.1 uM compound; for inhibition at 1 µM: 1 uM compound
T2 construct: human c-KIT (Thr544-Val976); GST (N); purchased Cell Signaling Technology HTScan c-KIT Kinase Assay Kit; host or cells: baculovirus expression system
T2 sequence (P10721 544-976): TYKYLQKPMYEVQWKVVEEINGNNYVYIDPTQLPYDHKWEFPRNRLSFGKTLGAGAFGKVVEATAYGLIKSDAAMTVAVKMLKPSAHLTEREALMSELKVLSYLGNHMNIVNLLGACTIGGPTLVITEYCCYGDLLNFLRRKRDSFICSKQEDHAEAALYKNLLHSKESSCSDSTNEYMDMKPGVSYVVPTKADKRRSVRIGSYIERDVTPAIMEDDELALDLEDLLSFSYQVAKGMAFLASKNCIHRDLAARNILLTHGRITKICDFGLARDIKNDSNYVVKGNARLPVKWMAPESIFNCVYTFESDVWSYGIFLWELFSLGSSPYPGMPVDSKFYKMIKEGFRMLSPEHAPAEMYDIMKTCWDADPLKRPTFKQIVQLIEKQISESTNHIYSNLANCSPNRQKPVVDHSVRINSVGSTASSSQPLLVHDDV
Procedure: as §1
The c-KIT assay was conducted following the protocol described in Protocol for HTScan® c-KIT Kinase Assay Kit (Cell Signaling Technology®).

[1] = test system: MV4-11 (FLT3-ITD) cell line; assay: In vitro cell activity assay (MTT cell viability, 72 hours); type: cell-based; conditions: Homo sapiens, 72 hours at 37° C., 10,000 cells per well, read-out: IC50 against MV4-11
Procedure: Human MV4-11 (FLT3-ITD) cell line was obtained from American Tissue Culture Collection (ATCC number: CRL-9591). The cell line was cultured with RPMI 1640 containing 10% fetal bovine serum, 1 mmol/L sodium pyruvate and 10 mmol/L HEPES (pH 7.4). The cell was grown and maintained in a humidified atmosphere at 37° C. and 5% carbon dioxide.
MV4-11 cell was plated in 96-well microtiter plates (10,000 cells per well) and serial dilutions of indicated compounds were added. At the end of the incubation period (72 hours at 37° C.), cell viability was determined by a tetrazolium dye, MTT (3-(4,5-dimethylthiazol-2-yl)-2,5-diphenyl tetrazolium bromide) (Promega, Madison, Wis.). The formazan crystals were dissolved by DMSO, and the absorbance at a wavelength of 600 nm was recorded using an ELISA plate reader. IC50 values were calculated using nonlinear regression and defined as the concentration needed for a 50% reduction in absorbance of treated versus untreated control cells.

| SMILES | inhibition at 0.1 µM (FLT-3 kinase) | inhibition at 1 µM (FLT-3 kinase) | inhibition at 0.1 µM (c-KIT kinase) | inhibition at 1 µM (c-KIT kinase) | IC50 [1] |
| --- | --- | --- | --- | --- | --- |
| O=c1[nH]c2cccccc-2c1-c1nc2ccccc2[nH]1 [Compound A1, 3-(benzimidazol-2-yl)-1-azaazulen-2-one, reference compound] | 11.5% | 59.4% | 34.1% | 64.5% | ~1000 nM |
| Nc1ncnc2[nH]c(-c3c4cccccc-4[nH]c3=O)nc12 [Compound B11] | 12.5% | 27.3% | 15.1% | 43.7% | 1000 to 5000 nM |
| COc1ccc2nc(-c3c4cccccc-4[nH]c3=O)cn2c1 [Compound B14] | – | 9.6% | 20.1% | 39.4% | 1000 to 5000 nM |
| O=c1[nH]c2cccccc-2c1-c1nc2cc(N3CCCN(c4ccncc4)CC3)ccc2[nH]1 [Compound B93] | 44.2% | 89.4% | – | – | 129 nM |
| O=c1[nH]c2cccccc-2c1-c1nc2cc(N3CCCN(c4cccc(Cl)n4)CC3)ccc2[nH]1 [Compound B96] | 10.9% | 35.7% | – | – | 1000 to 5000 nM |
| O=c1[nH]c2cccccc-2c1-c1nc2cc(N3CCCN(c4ncccn4)CC3)ccc2[nH]1 [Compound B98] | 17.8% | 69.5% | – | – | 418 nM |
| O=c1[nH]c2cccccc-2c1-c1nc2cc(N3CCCN(c4cnccn4)CC3)ccc2[nH]1 [Compound B99] | 17% | 51.8% | – | – | 600 nM |
| Cc1ccc(N2CCCN(c3ccc4[nH]c(-c5c6cccccc-6[nH]c5=O)nc4c3)CC2)nn1 [Compound B100] | 9.1% | 20.2% | – | – | 1000 to 5000 nM |
| CN(C)C1CCN(c2ccc3[nH]c(-c4c5cccccc-5[nH]c4=O)nc3c2)CC1 [Compound B101] | 46.8% | 90.7% | – | – | 39.7 nM |
| O=c1[nH]c2cccccc-2c1-c1nc2cc(N3CCC(N4CCCCC4)CC3)ccc2[nH]1 [Compound B102] | 22.8% | 67.8% | – | – | 115 nM |
| O=c1[nH]c2cccccc-2c1-c1nc2cc(N3CCC(N4CCOCC4)CC3)ccc2[nH]1 [Compound B103] | 36.5% | 87.4% | – | – | 42 nM |
| O=c1[nH]c2cccccc-2c1-c1nc2cc(N3CCC(N4CCCC4)CC3)ccc2[nH]1 [Compound B104] | 28.3% | 84.1% | – | – | 69.1 nM |
| CN1CCN(C2CCN(c3ccc4[nH]c(-c5c6cccccc-6[nH]c5=O)nc4c3)CC2)CC1 [Compound B105] | 38.7% | 86% | – | – | 177 nM |
| CCC1CCN(c2ccc3[nH]c(-c4c5cccccc-5[nH]c4=O)nc3c2)CC1 [Compound B106] | 24.2% | 76.2% | – | – | 315 nM |
| NC(=O)C1CCN(c2ccc3[nH]c(-c4c5cccccc-5[nH]c4=O)nc3c2)CC1 [Compound B108] | 16% | 86.5% | – | – | 89.1 nM |
| CCOCC1CCN(c2ccc3[nH]c(-c4c5cccccc-5[nH]c4=O)nc3c2)CC1 [Compound B109] | 17.3% | 35.2% | – | – | ~1000 nM |

| SMILES | inhibition at 0.1 µM (FLT-3 kinase) | inhibition at 1 µM (FLT-3 kinase) | inhibition at 0.1 µM (c-KIT kinase) | inhibition at 1 µM (c-KIT kinase) | IC50 [1] |
| --- | --- | --- | --- | --- | --- |
| O=c1[nH]c2cccccc-2c1-c1nc2cc(N3CCOCC3)ccc2[nH]1 [Compound B111] | 24.5% | 75% | – | – | 169 nM |
| CN1CCN(S(=O)(=O)c2ccc3[nH]c(-c4c5cccccc-5[nH]c4=O)nc3c2)CC1 [Compound B112] | 9.5% | 21.3% | – | – | 1000 to 5000 nM |
| CN1CCCN(S(=O)(=O)c2ccc3[nH]c(-c4c5cccccc-5[nH]c4=O)nc3c2)CC1 [Compound B113] | 14.8% | 42% | – | – | 100 to 500 nM |
| O=C(c1ccccc1)c1ccc2[nH]c(-c3c4cccccc-4[nH]c3=O)nc2c1 [Compound B114] | 10% | 16.3% | – | – | 1000 to 5000 nM |
| O=c1[nH]c2cccccc-2c1-c1nc2cc(-n3ccnc3)ccc2[nH]1 [Compound B115] | 25.4% | 72.7% | – | – | 306 nM |
| O=C(Nc1ccc2[nH]c(-c3c4cccccc-4[nH]c3=O)nc2c1)Nc1cc(C(F)(F)F)ccc1F [Compound B119] | 32% | 44.6% | – | – | 100 to 500 nM |
| O=C(Nc1ccc2[nH]c(-c3c4cccccc-4[nH]c3=O)nc2c1)Nc1cc(F)ccc1F [Compound B120] | 10.2% | 10.1% | – | – | 676 nM |
| O=C(Nc1ccc(F)c(Cl)c1)Nc1ccc2[nH]c(-c3c4cccccc-4[nH]c3=O)nc2c1 [Compound B130] | 8.6% | 24% | – | – | 1000 to 5000 nM |
| O=C(Nc1ccc2[nH]c(-c3c4cccccc-4[nH]c3=O)nc2c1)Nc1ccccc1C(F)(F)F [Compound B131] | 7.9% | 7.3% | – | – | 1000 to 5000 nM |
| O=C(Nc1cccc(C(F)(F)F)c1)Nc1ccc2[nH]c(-c3c4cccccc-4[nH]c3=O)nc2c1 [Compound B132] | 47.5% | 72.4% | – | – | 580 nM |
| O=C(Nc1ccc(C(F)(F)F)cc1)Nc1ccc2[nH]c(-c3c4cccccc-4[nH]c3=O)nc2c1 [Compound B133] | 30.5% | 53.3% | – | – | 100 to 500 nM |
| O=C(Nc1cc(C(F)(F)F)cc(C(F)(F)F)c1)Nc1ccc2[nH]c(-c3c4cccccc-4[nH]c3=O)nc2c1 [Compound B134] | 36.8% | 57.3% | – | – | 670 nM |
| O=C(Nc1ccc2[nH]c(-c3c4cccccc-4[nH]c3=O)nc2c1)Nc1cc(C(F)(F)F)ccc1Cl [Compound B135] | 41.4% | 62% | – | – | 626 nM |
| O=C(Nc1ccc2[nH]c(-c3c4cccccc-4[nH]c3=O)nc2c1)Nc1ccc(Cl)cc1C(F)(F)F [Compound B136] | 21% | 70.8% | – | – | 1000 to 5000 nM |
| COc1ccccc1NC(=O)Nc1ccc2[nH]c(-c3c4cccccc-4[nH]c3=O)nc2c1 [Compound B137] | 14.3% | 19% | – | – | 50 to 100 nM |
| COc1cccc(NC(=O)Nc2ccc3[nH]c(-c4c5cccccc-5[nH]c4=O)nc3c2)c1 [Compound B138] | 35.6% | 58.1% | – | – | 718 nM |
